# Laboratory results published in article PMC3690700 (Journal of nuclear medicine : official publication, Society …, 2008).
# “And” between values parts separate entries of the source, which are not always exact repeats. Equal values may be shown once. Marks after values point to notes of the source that are not given here.
# Tests used:
# [1] = Single i.v. dose of tariquidar in humans; format: in vivo; details: single i.v. dose of 2 mg/kg, from Cmax
# [2] = humans, single i.v. dose of 2 mg/kg, cited from earlier work
# [3] = tested on: P-gp at the BBB
# [4] = tested on: P-gp; details: mice, P-gp substrate loperamide, conventional biodistribution; cited from earlier work
# [5] = humans, ref personal communication Dr. U. Elben, Aväant Pharmaceuticals; cited from earlier work
# [6] = tested on: P-gp at the BBB; test: in vivo; details: Wistar Unilever, rat
# [7] = tested on: P-gp; details: read-out: half-maximum inhibition constant (IC50); substrate transport by P-gp in vitro; cited from earlier work
# [8] = Metabolism of; details: tariquidar 15 mg/kg i.v.
# [9] = 2T4K model, tariquidar 15 mg/kg i.v. 2 h before PET scan (n=5)
# [10] = 2T4K model, with vs without tariquidar 15 mg/kg i.v.
structure (smiles),measurement,setting,value
COc1cc2c(cc1OC)CN(CCc1ccc(NC(=O)c3cc(OC)c(OC)cc3NC(=O)c3cnc4ccccc4c3)cc1)CC2 [tariquidar],unbound concentration,[1],about 0.012 μM
same,Tolerability,[2],well tolerated
same,Cmax,[2]; read-out: maximum plasma concentrations (Cmax),~2300 nM
same,"Increase of K1 after tariquidar, 1T2K model","[3]; 1T2K model, tariquidar treatment",+632%
same,DV of (R)-11C-verapamil with tariquidar,[3]; [9],3.68±0.81 mL·mL^−1 and 3.68±0.81 (3) mL·mL^−1
same,K1 of (R)-11C-verapamil with tariquidar,[3]; [9],0.58±0.20 (9) mL·mL^−1·min^−1
same,k2 of (R)-11C-verapamil with tariquidar,[3]; [9],0.27±0.07 (43) min^−1
same,k3 of (R)-11C-verapamil with tariquidar,[3]; [9],0.37±0.17 (66) min^−1
same,k4 of (R)-11C-verapamil with tariquidar,[3]; [9],0.66±0.49 (55) min^−1
same,Relative change of k2,[3]; [10],−23%
same,Relative change of k3,[3]; [10],+27%
same,Relative change of k4,[3]; [10],−9%
same,DV (Logan) of (R)-11C-verapamil with tariquidar,"[3]; Logan analysis, tariquidar 15 mg/kg i.v. 2 h before PET scan (n=5)",3.53±0.79 (1) mL·mL^−1
same,Relative change of DV (Logan),"[3]; Logan analysis, with vs without tariquidar 15 mg/kg i.v.","+1,007^† %"
same,Emax,"[3]; maximum effect (DV) of dose-response fit, estimate±asymptotic standard error",4.5±3.8
same,Time of peak uptake of activity in brain after tariquidar injection,"[3]; scan 2, 0-90 min after tariquidar 15 mg/kg i.v.",32 ± 5 min
same,Brain uptake of activity after tariquidar vs baseline PET scans,[3]; tariquidar 15 mg/kg,about 12 fold
same,Increase of DV of (R)-11C-verapamil after tariquidar vs baseline,"[3]; tariquidar 15 mg/kg i.v., rat brain",12 fold
same,ED50,[4],5.6 mg/kg
same,bound to plasma proteins,[5],99.5%
same,ED50 at 2 h,[6],8.4 ± 9.5 mg/kg
same,IC50,[7],40 nM and ~40 nM
same,Effect of tariquidar administration on metabolism of (R)-11C-verapamil,[8],essentially left unaffected
